# Entries after “also recorded” stand apart in the source; their conditions may differ.
# What was measured:
# AMPKa = experiment: Dephosphorylation/inactivation of AMPKa [pAMPKa(T172)] by obestatin in L6E9 cells, immunoblot; assay type: cell-based, rat; details: obestatin 5 nM; L6E9 myoblasts (both cell models)
# Experimental: (§1) FIG. 1. Activation of regulatory enzymes of mitogenesis and myogenesis by obestatin in L6E9 myoblasts and myotubes. Effect of obestatin on activity of regulatory enzymes of the mitogenic capacity (ERK 1/2), metabolic capacity (Akt and AMPK) and myogenic capacity (Akt and p38). Based on a dose-response study, the saturating dose for the maximum enzymatic activation is established for a concentration of 5 nM. […] Inactivation of AMPK is described in both cell models. The activation profile discovers bimodal characteristics for the action of obestatin: 1.—mitogenic activation in myoblasts; and, 2.—myogenic activation. The immunoblots are representative of 6 independent assays. […]
# (§2) The tissue or cell samples were directly lysed in RIPA buffer [Tris-HCl (pH 7.2), 50 mM; NaCl, 150 mM; EDTA, 1 mM; NP-40, 1% (v/v); Sodium deoxycholate, 0.25% (w/v); protease inhibitors (Sigma); phosphatise inhibitors (Sigma)]. The lysates were clarified by centrifugation (14,000×g during 15 min at 4° C.) and the protein concentration was quantified using QuantiPro™ BCA assay kit (Sigma). […] The immunoreactive bands were detected by chemiluminescence (Pierce ECL Western Blotting Substrate; Thermo Scientific, Ill., USA). […]
# L6E9 myotubes = experiment: Activation of regulatory enzymes by obestatin in L6E9 myotubes, immunoblot; assay type: cell-based, rat; details: obestatin 5 nM
# Experimental: as §1, §2
# [1] = tested on: L6E9 cells (rat myoblasts); experiment: Expression of myogenic markers myogenin and MHC in L6E9 cells in differentiation medium, immunoblot; assay type: cell-based; details: DM, six days
# Source text: FIG. 3. Effect of obestatin on the expression of the myogenic markers myogenin and MHC in L6E9 myoblasts. Effect of the stimulation with different doses of obestatin (0.01-100) on the expression of the myogenic markers myogenin and myosin (MHC) 6 days after the induction of the differentiation by the use of differentiation medium (DM: DMEN+2% FBS). The protein expression levels refer to the levels of myoblasts in growth medium (GM: DMEN+10% FBS), non-differentiated. The data are represented as % with respect to the cell expression in GM (mean±standard error of 6 independent experiments). The evaluation of the degree of expression was performed by immunoblot by the use of the ImageJ64 program (*, p<0.05).
# The studies were performed based on the use of L6E9 rat myoblasts which were maintained in growth medium (GM) formed by DMEM (Dulbecco's Modified Eagle Medium) supplemented with 10% fetal bovine serum (FBS), 100 U/mL penicillin, and 100 U/mL streptomycin. For the differentiation, the cells were cultured at 80-100% of confluence in GM and it was replaced for differentiation medium (DM) formed by DMEM supplemented with 2% FBS, 100 U/mL penicillin, and 100 U/mL streptomycin during 6 days.
# The tissue or cell samples were directly lysed in RIPA buffer [Tris-HCl (pH 7.2), 50 mM; NaCl, 150 mM; EDTA, 1 mM; NP-40, 1% (v/v); Sodium deoxycholate, 0.25% (w/v); protease inhibitors (Sigma); phosphatise inhibitors (Sigma)]. The lysates were clarified by centrifugation (14,000×g during 15 min at 4° C.) and the protein concentration was quantified using QuantiPro™ BCA assay kit (Sigma). For immunoblot, equal amounts of protein were loaded which were fractionated in SOS-PAGE gels and transferred to nitrocellulose membranes. The immunoreactive bands were detected by chemiluminescence (Pierce ECL Western Blotting Substrate; Thermo Scientific, Ill., USA).
# The L6E9 cells were cultured in DM complemented with different concentrations of obestatin in a range of 0.01-100 nM during six days.
# L6E9 myoblasts = experiment: Cicatrization capacity (migration/invasion) in L6E9 myoblasts; assay type: cell-based, rat; details: obestatin 5 nM
# Experimental: FIG. 6. Evaluation of the cicatrization capacity (migration/invasion) of obestatin in L6E9 myoblasts. A: the L6E9 myoblasts grew to 100% of confluence in GM and later the damage was induced with a sterile pipette. The cells were maintained in GM or GM-obestatin (5 nM) during 8 and 24 hours after the induction of cell damage (40× magnification). B: quantification of the % of cicatrization (mean±standard error; *, p<0.05).
# The L6E9 cells were cultured until reaching a confluence of 100% in GM. Having reached said confluence, the damage was produced by the use of a sterile pipette point which made it possible to perform two linear and perpendicular channels. After the damage, the cells were washed and cultured with GM or GM+obestatin (5 nM). The progress of the migration was immediately photographed after the damage and at 8 and 24 hours, close to the crossing point. The “invaded” area was calculated by tracing the “cicatrization” edge and using ImageJ64 software. The percentage of cicatrization was calculated based on the following equation:% cicatrization=[(area 0 h−area xh)/area 0 h]×100.
# [2] = tested on: damaged tibialis anterior of mouse; experiment: Immunofluorescence analysis of eMHC expression in damaged tibialis anterior of mouse; assay type: in vivo, Swiss mice; details: 300 nmol/kg weight; 96 h
# Experimental: FIG. 11. Immufluorescence analysis of the effect of the exogenous administration of obestatin (96 h) on eMHC expression in the damaged tibialis anterior of mouse (animal model). Representative images of eMHC expression by immunofluorescence of sections of the tibialis anterior treated with obestatin (300 nmol/kg/24 h) or PBS (control) 96 h after inducing the damage. The upper panels correspond to staining with anti-eMHC antibody and the lower panels to staining with DAPI.
# For the tissue immunofluorescence analysis, frozen sections were obtained which were fixed using a buffered solution of PBS-paraformaldehyde during 15 min, washed, permeabilized and blocked with PBT during 30 min, and later incubated with the corresponding primary antibody (anti-eMHC, anti-laminin antibody) diluted in PBT (1:50) during 12 h at 4° C. After three washes with PBS, the tissue sections were incubated with secondary antibody in PBT (1:1000) during 45 min at 37° C. […] The digital images of the cell culture were acquired with a Leica TCS-SP2 confocal microscope.
# The mice (30 g; n=50) were maintained in 12 h light-darkness cycled with free access to standard diet and water. To induce the muscle damage, the tibialis anterior muscle (TA) was extracted under anaesthesia and subjected to three cycles of damage due to cold contact applying along the length of the muscle a metal bar cooled in liquid nitrogen. […]
substance,measurement,setting,value
obestatin,effect on AMPKa phosphorylation in T172 [pAMPKa(T172)],AMPKa,Inactivation; also recorded: dephosphorylates
same,"activation dynamics of Akt, p38, ERK1/2 and AMPKa compared with myoblasts",L6E9 myotubes,similar
same,increase of MHC expression in relation to the control cells,[1]; 5 nM obestatin,−1.6
same,increase of myogenin expression in relation to the control cells,[1]; 5 nM obestatin,−1.7
same,obestatin concentration of maximum effect on myogenin and MHC expression,[1]; range 0.01-100 nM,5 nM
same,increase of migration index (cicatrization) in relation to control cells,L6E9 myoblasts; 8 hours after inducing cell damage,53%
same,increase of migration index (cicatrization) in relation to control cells,L6E9 myoblasts; 24 hours after inducing cell damage,21%
same,eMHC expression by immunofluorescence in relation to controls,[2],significantly increases

# — patent US20150094264A1, “USE OF OBESTATIN FOR MUSCLE REGENERATION” (UNIVERSIDADE DE SANTIAGO DE COMPOSTELA, priority 2012, published 2015)
